Experimental data from paper PMC11997999, “Uncovering α-Selectivity for Liver X Receptor Agonists for Lipotoxic Cancer Therapies” (Journal of Medicinal Chemistry, 2025).

Key:
Hep3B cells [1] = experiment: Cell viability analysis in Hep3B cells (CellTiter-Glo); format: cell-based, human; conditions: 5d
Description: To determine the therapeutic efficacy of compound 40 in HCC cells, we next tested its effect on Hep3B cell viability in combination with the DFG-out Raf inhibitor sorafenib (2 μM).
(§1) For organoid treatment studies, digestion of organoids was performed using TrypLE Express (Gibco) supplemented with 100 μg/mL DNaseI and 10.5 μM Y-27632 dihydrochloride (Invitrogen) at 37 °C, and afterward, single-cells were plated in white 96 well plates (Sarstedt) in a mixture of 10% Matrigel (Growth Factor Reduced (GFR) Matrigel, Corning) in culture medium. Cell viability was determined after 5 days of treatment using the CellTiter-Glo 3D Cell Viability Assay Kit (Promega). Cell viability of Hep3B, AML12, and BNL CL.2 cells was determined after 5 days of treatment in white 96 well plates (Sarstedt) using the CellTiter-Glo 2.0 Cell Viability Assay Kit (Promega). AML12 and BNL CL.2 cells were also obtained from the American Type Culture Collection. The luminescence signal was measured using an […] M PLEX plate reader (Tecan) and the Tecan i-control software (v3.9.1). Sodium oleate (Selleckchem) was dissolved in methanol and added to cells at a final concentration of 200 μM.

LXRα LBD (GST) = molecular target: T1, LXRα LBD (GST) (Homo sapiens, UniProt Q13133); experiment: Time-resolved LXR FRET assay (LanthaScreen TR-FRET LXRα Coactivator Assay Kit); format: biochemical; conditions: 5 nM LXRα LBD (GST), read after 6 h; R^2 of fit given; read-out: TR-FRET activity (EC50) LXRα
T1 construct: 5 nM LXRα LBD (GST); 10 nM LXRβ LBD (GST); purchased ThermoFisher Scientific PV4655
T1 sequence (Q13133 209-447 limits assumed): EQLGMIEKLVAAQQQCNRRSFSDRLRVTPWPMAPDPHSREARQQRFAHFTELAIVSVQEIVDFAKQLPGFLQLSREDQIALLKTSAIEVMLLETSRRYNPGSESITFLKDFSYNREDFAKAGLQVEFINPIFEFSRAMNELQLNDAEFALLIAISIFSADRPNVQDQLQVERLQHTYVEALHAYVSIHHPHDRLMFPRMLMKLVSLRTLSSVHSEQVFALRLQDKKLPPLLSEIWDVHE
Description: The biochemical TR-FRET assays were performed using the LanthaScreen TR-FRET LXRα Coactivator Assay Kit, goat (ThermoFisher Scientific, PV4655), and the LanthaScreen TR-FRET LXRβ assay kit, goat (ThermoFisher Scientific, PV4658), according to the manufacturer’s instructions using the following concentrations: 5 nM LXRα LBD (GST); 10 nM LXRβ LBD (GST); 500 nM fluorescein-TRAP220/DRIP-2; 200 nM fluorescein-D22; 10 nM Tb anti-GST antibody. The TR-FRET signals were measured after 6 h using a TECAN SPARK multimode microplate reader with the following settings: first excitation wavelength: 360 nm (bandwidth 35 nm), first emission wavelength: 485 nm (bandwidth 20 nm); second excitation wavelength: 360 nm (bandwidth 35 nm), second emission wavelength: 535 nm (bandwidth 25 nm); integration time: 200 μs; lag time: 100 μs; settle time: 0 ms.

BNL CL.2 cells = experiment: Cell viability analysis in untransformed liver cells BNL CL.2 (CellTiter-Glo); format: cell-based; conditions: BNL CL.2, 5d, with 2 μM sorafenib
Description: (§2) To further determine the therapeutic potential of compound 40, we analyzed the effect of a combinatorial lipotoxic therapy with this agonist in untransformed liver cells. We applied the well-established untransformed liver cell lines AML12 and BNL CL.2 and subjected them to treatment with 40 in combination with sorafenib.
as §1

[2] = tested on: SOD1, GADD34 and CHOP (GADD153); experiment: Western blot of oxidative stress and ER stress response factors in Hep3B cells; format: cell-based, human; conditions: 3 days, with 2 μM sorafenib
Description: Proteins were extracted from cells using RIPA buffer, separated by SDS-PAGE, and transferred to PVDF membranes (Amersham Hybond ECL). For protein detection, membranes were incubated with antibodies against LXRα (Novus Biologicals, NBP2–17186, dilution: 1:1000), LXRβ (Cell Signaling Technology, 13519S, clone: D6M9D, dilution: 1:1000), CHOP (Cell Signaling, 2895 (L63F7), dilution: 1:1000), GADD34 (Proteintech, 10449–1-AP, dilution: 1:1000), SOD1 (ThermoFisher Scientific, MA1–105, clone: 8B10, dilution: 1:1000), α-tubulin (Cell Signaling, 2125 clone: 11H10, dilution: 1:5000), and vinculin (Sigma-Aldrich V9131, clone: hVIN-1, dilution: 1:5000) and visualized using the ChemiDoc MP imaging system (Bio-Rad, ImageLab v5.2.1).

Hep3B cells [3] = experiment: Oxidative stress in Hep3B cells (CellROX Green Reagent, FACS); format: cell-based, human; conditions: 3 days, 3 μM LXR agonist + 1 μM sorafenib
Description: We previously described that our established lipotoxic therapy triggers oxidative stress and an ER stress response, which finally leads to apoptosis in tumor cells.[6]
The determination of oxidative stress levels was performed using CellROX Green Reagent from Thermo Fischer Scientific in Hep3B cells. Measurement of green fluorescence was performed using the FACS LSRFortessa cell analyzer (BD Bioscience, Flow Cytometry Core Facility Tuebingen) after 3 days of treatment. Data were collected using DIVA software (v9.0.1).

AML12 cells = experiment: Cell viability analysis in untransformed liver cells AML12 (CellTiter-Glo); format: cell-based; conditions: AML12, 5d, with 2 μM sorafenib
Description: as §2, §1

O=C1C(Nc2ccc(N3CCCCC3)cc2)=C(c2ccccc2)C(=O)N1Cc1ccccc1 [Compound 40, 1-Benzyl-3-phenyl-4-((4-(piperidin-1-yl)phenyl)amino)-1H-pyrrole-2,5-dione]
effect of sodium oleate on efficacy of the combination with sorafenib (Hep3B cells [1]; 2 μM sorafenib ± 200 μM sodium oleate): strongly diminished the therapeutic efficacy | therapeutic effect on cell viability, monotherapy (Hep3B cells [1]; without sorafenib): did not show a significant therapeutic effect | EC50 (LXRα LBD (GST)): 42 nM | sensitivity of untransformed liver cells to combination therapy (cell viability) (BNL CL.2 cells): only very low sensitivity | induction of SOD1, GADD34 and CHOP [2]: strong induction of all factors | oxidative stress induction in combination with sorafenib (Hep3B cells [3]): more efficient in inducing oxidative stress than GW3965 (2), GSK3987 (3), and AZ876 (4) | sensitivity of untransformed liver cells to combination therapy (cell viability) (AML12 cells): only very low sensitivity
